Experimental data as given in patent publication US20240158447A1, “PEPTIDES FOR USE IN THE TREATMENT OR PREVENTION OF MYOCARDIAL DAMAGE” (THE UNIVERSITY OF WESTERN AUSTRALIA, priority 2020, published 2024).
“Also recorded” adds a separate entry of the source.

Legend:
Guinea pig hearts = experiment: Myocardial ischemia-reperfusion injury, Langendorff hearts ex vivo (CK, LDH, GSH:GSSG); conditions: for Creatine Kinase (CK) activity in perfusate: FIG. 6(a); for Lactate Dehydrogenase (LDH) activity in perfusate: FIG. 6(b); for GSH:GSSG ratio in whole heart tissue: FIG. 6(c)
Method: Adult male guinea pigs were anesthetized with pentobarbitone sodium (240 mg/kg) via intraperitoneal injection prior to excision of the heart. Guinea pig hearts were cannulated onto a Langendorff apparatus via the aorta and perfused retrogradely with Ca^2+ containing KHB comprising (in mM): 120 NaCl, 25 NaHCO3, 4.8 KCl, 2.2 MgSO4, 1.2 NaH2PO4, 11 glucose and 1.5 CaCl2 (pH=7.35 with O2/CO2 at 37° C.) at 37° C. for 30 min at a rate of 7 mL/min, followed by 30 min no-flow ischemia, then 30 min reperfusion as previously described.
Perfusates were collected 20 and 25 min pre-ischemia and 20 and 30 min following reperfusion. A single dose of 0.5-10 μM AID(S)-TAT, AID-TAT, peptide 6 or peptide 7 was added to Ca^2+-containing KHB solution just prior to reperfusion. Creatine Kinase (CK) and Lactate Dehydrogenase (LDH) activity was measured in perfusates collected pre- and post-ischemia, and post-ischemia values normalized to pre-ischemia values.
For each sample, 10 μL of perfusate was added to 100 μL CK enzyme reagent (CK NAC-activated diagnostic kit, Randox Laboratories) and the rate of increase in absorbance recorded over 15 min at 30° C. using a spectrophotometer (PowerWave XS, BioTek, 340 nm).
To determine LDH activity, 150 μL of each sample was mixed with 50 μL of LDH reagent (50 mM imidazole buffer, 375 μM NADH, pyruvate and 0.05% BSA, pH=7) and the rate of decrease in absorbance recorded over 15 min at 25° C. using a spectrophotometer (PowerWave XS, BioTek, 340 nm).
GSSG was calculated by subtracting GSH from total glutathione.

cTnI.2 wt myocytes = experiment: Flavoprotein oxidation response to BayK(−), wt myocytes (Example 10); assay type: cell-based, mouse; conditions: 10 μM BayK(−)
Method: In this experiment wt myocytes were pre-exposed to 0.1, 0.5 or 1 μM for 20 min and assessed changes in flavoprotein oxidation and ψm.
Measurement of mitochondrial flavoprotein oxidation: Flavoprotein autofluorescence was used to measure flavoprotein oxidation based on previously described methods (Yaniv Y, Juhaszova M, Lyashkov A E, Spurgeon H A, Sollott S J, Lakatta E G. Ca2+-regulated-cAMP/PKA signaling in cardiac pacemaker cells links ATP supply to demand. J Mol Cell Cardiol. 2011; 51(5):740-8). […] Fluorescent images were acquired at 1 min intervals with 200 ms exposure. Metamorph 6.3 (Version 7.10.3) was used to quantify the signal by manually tracing myocytes. An equivalent region not containing cells was used as background and was subtracted. Fluorescence values recorded over 5 min before and 5 min after addition of drugs were averaged and alterations in fluorescent ratios reported as the percentage increase from the basal average. FCCP (50 μM) and NaCN (40 mM) was added at the end of each experiment to achieve a respective maximal and minimal fluorescence value indicative of maximal and minimal flavoprotein oxidation.
The ICA-L agonist BayK(−) was used to activate the channel and assess mitochondrial function. […] FIG. 10 presents the mean+/−SEM of flavoprotein fluorescence from cTnI.2 wt and cTnI-G2035 mutant myocytes before and after exposure to 10 μM BayK(−) in the presence of 1 μM AID(S)-TAT, and increasing concentrations of variant peptides as indicated. N=no. of animals, n=no. of cardiomyocytes. P values shown compared with AID(S)-TAT as determined by the Kruskal-Wallis test.

cTnI-G203S mice = experiment: Myocardial fibrosis, Masson's Trichrome collagen volume fraction; assay type: in vivo, mouse; conditions: 5 μM, 3×/wk/5 wk from 20 weeks of age; versus cTnI-G203S AID(S)-TAT; FIG. 14
Source text: Following completion of treatment regimes, mouse hearts were extracted and prepared for Masson's Trichchrome staining based on previously described methods with minor modifications (Van De Vlekkert D, Machado E, d'Azzo A. Analysis of Generalized Fibrosis in Mouse Tissue Sections with Masson's Trichrome Staining. Bio Protoc. 2020; 10(10):e3629). Hearts were washed in PBS and fixed overnight in 10% buffered formalin saline (FSAL-5L; Hurst Scientific, AUS). After fixation, hearts were washed 3×10 min in PBS and incubated overnight in 30% sucrose solution (in PBS). […]
To observe the levels of cardiac fibrosis in mice, a minimum of 15 sections of microscopic fields for each animal were selected randomly for histological analysis. Images of heart sections were obtained using a Nikon upright light microscope (DS-Qi2, Japan) at 20× magnification and analysed using ImageJ (NIH). […]
Here we assessed the efficacy of treating 20-week-old pre-hypertrophic cTnI-G203S mice with 5 μM AID-TAT variant peptides (3×/wk/5 wk) on the development and progression of fibrosis. […] Images were acquired using a Nikon Upright Microscope and collagen volume fraction (%) was determined using ImageJ colour thresholding. […] Values reported as mean±SEM; P values compared with cTnI-G203S AID(S)-TAT as determined by the Kruskal-Wallis test.

[1] = 0.5 μM peptide added just prior to reperfusion
[2] = 1 μM peptide added just prior to reperfusion

Substance: AIDP7-TAT: QQQEEDLKGYLDWITQAE with TAT sequence
- Creatine Kinase (CK) activity in perfusate (Guinea pig hearts; [1]): reduced compared to the AID(S)-TAT peptide; also recorded: reduced in both P7-TAT (1 μM) and P7-TAT (0.5 μM) compared to the P6-TAT peptide; also recorded: at least as effective as AID-TAT (1 μM)
- Lactate Dehydrogenase (LDH) activity in perfusate (Guinea pig hearts; [1]): reduced compared to the AID(S)-TAT peptide; also recorded: reduced LDH at least as well as AID-TAT (1 μM)
- GSH:GSSG ratio in whole heart tissue (Guinea pig hearts; 0.5 μM peptide): statistically significant increase in the GSH:GSSG ratio, comparable to the AID-TAT samples at 10 μM
- Creatine Kinase (CK) activity in perfusate (Guinea pig hearts; [2]): reduced compared to the AID(S)-TAT peptide; also recorded: reduced in both P7-TAT (1 μM) and P7-TAT (0.5 μM) compared to the P6-TAT peptide
- Lactate Dehydrogenase (LDH) activity in perfusate (Guinea pig hearts; [2]): reduced compared to the AID(S)-TAT peptide
- GSH:GSSG ratio in whole heart tissue (Guinea pig hearts; 1 μM peptide): statistically significant increase in the GSH:GSSG ratio, comparable to the AID-TAT samples at 10 μM
- oxidative stress (CK activity, LDH activity and GSH:GSSG ratio taken together) (Guinea pig hearts; same concentration or lower dosages of P7-TAT versus AID-TAT): more effective than AID-TAT at reducing oxidative stress
- BayK(−) induced increase in flavoprotein oxidation (cTnI.2 wt myocytes; 0.5 μM peptide 20 min, FIG. 10B): effective
- BayK(−) induced increase in flavoprotein oxidation (cTnI.2 wt myocytes; 1 μM peptide 20 min, FIG. 10A): just as effective at attenuating the response in wt myocytes as the original AID-TAT
- left ventricular posterior wall collagen volume fraction (CVF, %) (cTnI-G203S mice): significantly decreased
